Entries after “also recorded” stand apart in the source; their conditions may differ.
Key:
C. elegans dauer larvae = experiment: Dispersal assay, C. elegans dauer; type: in vivo; settings: for dispersing nematodes, normalized to percent of the positive control response: physiological concentration, with 0.25% E. coli (HB101), positive control dauer conditioned medium; for substitution for ascr#2 in the C. elegans dispersal blend: in vivo
Protocol: C. elegans dauer juveniles were washed with MILLI-Q water 3 times, placed into 6 cm petri dishes with a small amount of water, and rested overnight. Approximately 200-300 nematodes in 10 μl of water were placed on an agar plate, to which 2 μl of treatment was added. The liquid culture that produced 60% dauer animals was centrifuged, filtered with a 0.45 μm filter, and used as a positive control for dispersal. Thereafter, media were lyophilized and resuspended in MILLI-Q water 5 times. 2 μl to 10 μl of nematode suspension was used for the assay. As a negative control, 0.5% E. coli (HB101) was prepared in S-complete, lyophilized, and adjusted to the final volume of 0.25% E. coli in the assay.
Nematodes were quantified using Image J software (Image Processing and Analysis in Java, National Institutes of Health). The number of nematodes visualized and counted using Image J is illustrated in FIG. 63B. Nematodes inside the circle were subtracted manually from the total number of worms counted because of the location of their placement. Each treatment was replicated 9-11 times. The graph was normalized to the positive control, the dauer conditioned medium.

C. elegans males = experiment: Attraction assay (long-range, point source); settings: in vivo
Protocol: 10 cm standard chemotaxis plates were prepared (Bargmann et al., Cell 74:515-27 (1993), which is hereby incorporated by reference in its entirety) and stored at 4° C. until the day before use. Standard 1 cm-diameter copper pipes were sectioned into 1 cm-tall segments to use for the holding chambers. The females/hermaphrodites were isolated overnight, washed 3 times in M9 buffer, and then allowed to wander on a plate pre-conditioned with 50 uL of 1000× streptomycin for 2 hours to kill any bacteria that might produce a false positive attractant. The nematodes were then washed 3 times, and the supernatant from the last wash was placed in a copper chamber, as the control, 1 cm from the border of the 10 cm plate. The nematodes were suspended in M9 within the copper chamber, 1 cm from the border opposite the control chamber. After 6 hours, they were subsequently removed and replaced with 3 μL of 1M sodium azide. 100 C. elegans adult males were isolated overnight, washed several times in ddH2O, and placed at the center of the agar plate. After several hours, males paralyzed within 2 cm of each region were scored. The Chemotaxis Index (Bargmann et al., Cell 74:515-27 (1993), which is hereby incorporated by reference in its entirety) was then used to score male chemotaxis to either point source.

C. elegans [1] = experiment: Ascaroside function (Table 12), C. elegans; type: in vivo, Caenorhabditis elegans; design: key to Attract Females/Herm. / Promote Dauer Formation / Attract Males: A very strong result of affecting nematode behavior is designated in the table as “strong.”
Protocol: (§1) Various ascarosides and ascaroside blends were administered to various nematodes described below (Table 12). […] A very strong result of affecting nematode behavior is designated in the table as “strong.”

S. feltiae = experiment: Ascaroside function (Table 12), S. feltiae; type: in vivo, Steinernema feltiae
Protocol: as §1

C. elegans [2] = settings: cited from earlier work; for most active amount for attraction in C. elegans: from 1 μM concentration
C. elegans [3] = settings: in vivo; cited from earlier work
[4] = system: several of the tested nematode species; experiment: Retention assay, across species; type: in vivo; settings: 1 nM, 1 μM and 1 mM tested
Protocol: OP50 E. coli was grown on a standard 5 cm agar plate (made with standard Nematode Growth Medium). The bacterial lawn was 16 mm in diameter and was grown overnight at 20° C. before being used in trials. Two 4 mm spots (0.6 μL) were placed on opposite sides of the bacterial lawn (using a transparent template to guide spot placement), and several minutes elapsed for the liquid to settle in before placing nematodes down on the assay. Recording began immediately upon worm placement. 0.6 μL of the control was placed on one side of the lawn, and 0.6 μL of the experimental cue was placed on the other side of the lawn, changing the location of the cue throughout trials between left/right and top/bottom to avoid bias.
Nematodes were isolated by gender at the L4 stage the day before being used in trials as developed adults. Worms were evenly divided and placed at two points equidistant from the foci of the scoring region. Trials were recorded for 20 minutes, and frames were collected for analysis at 1 frame per second. Results were averaged from at least three different trials. For every nematode species in this study, a different total number of worms (using water in both scoring regions) was tested to determine the minimum number of worms necessary for consistent unbiased results over a 20 minute trial. The total number of worms used in the multiple species assays depended on that species' optimal parameters. 10 worms were used for P. redivivus males and females, 20 worms were used for C. elegans males and O. dolichuridae males, and 14 worms were used for S. glaseri males. The Automated Software was used to compare worm occupancy in each scoring region over time, and the Chemotaxis Index (Bargmann et al., Cell 74:515-27 (1993), which is hereby incorporated by reference in its entirety) was adapted to score preference or avoidance to each ascaroside.
A video camera attached to the microscope produced a digital video stream, which was then analyzed. The ratio of the time the average worm spent in each region of interest was calculated for every trial. For ease of implementation, all worms in a single experiment were assumed to be roughly the same size. Thus worm pixels were counted instead of whole worms, allowing fractions of a worm in the region of interest to be taken into account. It also eliminated the need for a shape-based worm identification algorithm, and allowed each frame to be analyzed independently. A band-pass filter was applied to each frame to eliminate the effect of uneven lighting and also accentuate the worms against the background. The worm was then identified after thresholding the filtered image. Throughout each experiment, the locations and sizes of the regions of interest were known. Through the filtering described above, it is known which pixels are occupied by worms and which ones are not. Thus, the ratio of worm-pixels to all pixels inside the region of interest can be calculated to produce the worm-occupancy ratio. This calculation was done for every frame, giving a plot output of worm-occupancy ratio vs. time for each region.

Panagrellus redivivus = experiment: Ascaroside function (Table 12), Panagrellus redivivus; type: in vivo
Protocol: as §1

S. glaseri = experiment: Ascaroside function (Table 12), S. glaseri; type: in vivo
Protocol: as §1

S. feltiae IJs = experiment: Dispersal assay, S. feltiae IJs; type: in vivo; settings: physiologically relevant concentrations
Protocol: S. feltiae IJs were washed with MILLI-Q water three times and incubated in 6 cm petri dishes for […] with a small amount (4-5 ml) of MILLI-Q water. Nematodes were placed the following day on a 10.7 g/L agar with 1010 g/cm^2 gel strength (PhytoTechnology Lab. Shawnee Mission, Kans.). Nematode behavior was assayed on multiple plates with internal plate replicates to rule out the possibility that behavior was affected by plate composition. Approximately 300 IJs in 10 μl water were placed on an agar medium and the test compounds or extracts (1-2 μl) were placed into the nematode suspension. Upon absorption (˜15 minutes) of the liquid, the freely moving nematodes were video recorded for 5-10 minutes. Dispersal behavior is temperature and season dependent. During winter, the assay is effective at room temperature (22±1° C.). During summer, the assay requires a temperature controlled environment due to the effects on nematode behavior above 23° C.
For entomopathogenic nematodes (EPN), insect cadavers are known to promote dispersal behavior of the IJ stage (Shapiro-Ilan et al., J. Invertebr. Pathol. 83:270-72 (2003), which is hereby incorporated by reference in its entirety). An assay was therefore developed to identify compounds in consumed insect cadavers that promote dispersal. Approximately 300 IJs of S. feltiae in 10 μl of water were placed on an agar plate (FIG. 64B). […]

[5] = system: Meloidogyne javanica, M. floridensis, M. incognita, M. hapla; experiment: Ascaroside function (Table 12), root-knot nematodes; type: in vivo, Meloidogyne spp.; settings: Meloidogyne javanica, M. floridensis, M. incognita, M. hapla
Protocol: as §1

[6] = system: Steinernema riobrave, S. diaprepesi, S carpocapse; experiment: Ascaroside function (Table 12), Steinernema riobrave group; type: in vivo, Steinernema spp.
Protocol: as §1

[7] = system: Heterorhabditis bacteriophora, H. zealandica, H. floridensis; experiment: Ascaroside function (Table 12), Heterorhabditis; type: in vivo, Heterorhabditis spp.; settings: Heterorhabditis bacteriophora, H. zealandica, H. floridensis
Protocol: as §1

SMILES	dispersing nematodes, normalized to percent of the positive control response (C. elegans dauer larvae)	C. elegans male chemotaxis to a point source (C. elegans males)	amount eliciting C. elegans male attraction from a distance (as low as) (C. elegans males)	Attract Males (C. elegans [1])	Dispersal (of dauer larvae, infectious juveniles) (C. elegans [1])	Promote Dauer Formation (C. elegans [1])	Dispersal (of dauer larvae, infectious juveniles) (S. feltiae)	most active amount for attraction in C. elegans (C. elegans [2])	dauer-inducing activity (C. elegans [3])	preference for areas conditioned by ascaroside [4]	Attract Males (Panagrellus redivivus)	Attract Males (S. glaseri)	dispersal activity when tested alone (S. feltiae IJs)	Dispersal (of dauer larvae, infectious juveniles) [6]	further results
CC(=O)CCC[C@@H](C)O[C@@H]1O[C@@H](C)[C@H](O)C[C@H]1O [ascr#2]	40%	chemotax towards	≤ 500 attomol	ascr#2	ascr#2	([strong])	ascr#2	~1 pmol	promote dauer entry	–	–	–	–	–	–
CC1O[C@@H](O[C@H](C)CCCC/C=C/C(=O)O)[C@@H](O)C[C@H]1O (stereo partly shown) [ascr#3]	–	chemotax towards	≤ 5 femtomol	ascr#3	–	([strong])	ascr#3	~1 pmol	promote dauer entry	preferred	ascr#3	ascr#3	–	–	Repel Females/Herm. (C. elegans [1]): ascr#3; hermaphrodite repulsion (C. elegans [2]; in vivo): repels hermaphrodites; also recorded: strongly deter; male attraction (C. elegans [2]; in vivo): strongly attracts males
C[C@H](CC/C=C/C(=O)Nc1ccc(C(=O)O)cc1)O[C@@H]1O[C@@H](C)[C@H](O)C[C@H]1O [ascr#8]	50%	not active	–	ascr#8	ascr#8	([strong])	ascr#8	–	promote dauer entry	preferred	ascr#8	ascr#8	–	–	Attract Females/Herm. (Panagrellus redivivus): ascr#8
C[C@H](CCC(=O)O)O[C@@H]1O[C@@H](C)[C@H](O)C[C@H]1O [ascr#9]	–	–	–	ascr#9	–	–	ascr#9	–	–	preferred	ascr#9	–	did not have activity	ascr#9	substitution for ascr#2 in the C. elegans dispersal blend (C. elegans dauer larvae): can replace; substitution for ascr#2 in the C. elegans dispersal blend (C. elegans dauer larvae; listed as Ascr#9): able to substitute; Dispersal (of dauer larvae, infectious juveniles) [5]: ascr#9; Repel Females/Herm. [5]: ascr#9; Dispersal (of dauer larvae, infectious juveniles) [7]: ascr#9
C[C@H](CC(=O)O)O[C@@H]1O[C@@H](C)[C@H](O)C[C@H]1O [ascr#11]	–	–	–	–	–	–	–	–	–	–	–	–	did not have activity	ascr#11	–

— patent publication US9534008B2, “Small molecule compounds that control plant- and insect-pathogenic nematodes” (California Institute of Technology, priority 2011, dated 2017)
